Reference: patent publication US12077503B2, “Substituted cyclic amides and their use as herbicides” (FMC CORPORATION, priority 2015, dated 2024)
Read-outs that look alike come from different tables or passages of the source.

Assays:
Type in all cases: in vivo
[1] = tested on: barnyardgrass (Echinochloa crus-galli); test: Test B flooded paddy test; conditions: Echinochloa crus-galli, Flood, 250 g ai/ha; scale of 0 to 100 where 0 is no effect and 100 is complete control; read-out: Barnyardgrass plant response rating
In short: (§1)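 Plants at 2-leaf stage flooded to 3 cm above soil, with compounds applied directly to paddy water and that depth maintained. Plants kept in greenhouse 13–15 d. Visual rating versus controls on a 0 (no effect) to 100 (complete control) scale.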

[2] = tested on: sedge, umbrella (small-flower umbrella sedge, Cyperus difformis); test: Test B flooded paddy test; conditions: Cyperus difformis, Flood, 250 g ai/ha; scale of 0 to 100 where 0 is no effect and 100 is complete control; read-out: Sedge, Umbrella plant response rating
In short: as §1

[3] = tested on: rice (Oryra sativa); test: Test B flooded paddy test; conditions: Oryza sativa, Flood, 250 g ai/ha; scale of 0 to 100 where 0 is no effect and 100 is complete control; read-out: Rice plant response rating
In short: as §1

[4] = tested on: ducksalad (Heteranthera limosa); test: Test B flooded paddy test; conditions: Heteranthera limosa, Flood, 250 g ai/ha; scale of 0 to 100 where 0 is no effect and 100 is complete control; read-out: Ducksalad plant response rating
In short: as §1

[5] = tested on: Kochia (Kochia scoparia); test: Test A postemergence; conditions: Bassia scoparia, post-emergence, 240 h; for pest or weed control at 125 g/ha: 125 g ai/ha, postemergence; for pest or weed control at 31 g/ha: Postemergence, 31 g ai/ha, visual injury after approx. 10 d, 0 to 100 scale, 0 no effect, 100 complete control
In short: (§2)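 In a loam soil and sand blend, planted seeds got a preemergence directed soil spray, and young plants at the one- to two-leaf stage, 2–10 cm high, got a postemergence application; ~10 d greenhouse hold; injury rated visually, 0 = none, 100 = complete control.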

[6] = tested on: pigweed (Amaranthus retroflexus); test: Test A postemergence; conditions: Amaranthus retroflexus, post-emergence, 240 h; for pest or weed control at 125 g/ha: 125 g ai/ha, postemergence; for pest or weed control at 31 g/ha: Postemergence, 31 g ai/ha, visual injury after approx. 10 d, 0 to 100 scale, 0 no effect, 100 complete control
In short: as §2

[7] = tested on: Galium (catchweed bedstraw, Galium aparine); test: Test A postemergence; conditions: Galium, post-emergence, 240 h; for pest or weed control at 125 g/ha: 125 g ai/ha, postemergence; for pest or weed control at 31 g/ha: Postemergence, 31 g ai/ha, visual injury after approx. 10 d, 0 to 100 scale, 0 no effect, 100 complete control
In short: as §2

[8] = tested on: wheat (Triticum aestivum); test: Test A postemergence; conditions: Triticum aestivum, post-emergence, 240 h; for plant injury at 125 g/ha: 125 g ai/ha, postemergence; for plant injury at 31 g/ha: Postemergence, 31 g ai/ha, visual injury after approx. 10 d, 0 to 100 scale, 0 no effect, 100 complete control
In short: as §2

[9] = tested on: blackgrass (Alopecurus myosuroides); test: Test A postemergence; conditions: Alopecurus myosuroides, post-emergence, 240 h; for pest or weed control at 125 g/ha: 125 g ai/ha, postemergence; for pest or weed control at 31 g/ha: Postemergence, 31 g ai/ha, visual injury after approx. 10 d, 0 to 100 scale, 0 no effect, 100 complete control
In short: as §2

[10] = tested on: barnyardgrass (Echinochloa crus-galli); test: Test A postemergence; conditions: Echinochloa crus-galli, post-emergence, 240 h; for pest or weed control at 125 g/ha: 125 g ai/ha, postemergence; for pest or weed control at 31 g/ha: Postemergence, 31 g ai/ha, visual injury after approx. 10 d, 0 to 100 scale, 0 no effect, 100 complete control
In short: as §2

[11] = tested on: ragweed (common ragweed, Ambrosia elatior); test: Test A postemergence; conditions: Ambrosia artemisiifolia, post-emergence, 240 h; for pest or weed control at 125 g/ha: 125 g ai/ha, postemergence; for pest or weed control at 31 g/ha: Postemergence, 31 g ai/ha, visual injury after approx. 10 d, 0 to 100 scale, 0 no effect, 100 complete control
In short: as §2

[12] = tested on: corn (Zea mays); test: Test A postemergence; conditions: Zea mays, post-emergence, 240 h; for plant injury at 125 g/ha: visual injury rating after approximately 10 d, read-out: Corn plant response rating (0 to 100 scale, 0 no effect, 100 complete control); for Corn plant response rating (crop injury, 0 = no effect, 100 = complete kill) at 31 g/ha: Postemergence, 31 g ai/ha, visual injury after approx. 10 d, 0 to 100 scale, 100 complete control
In short: as §2

[13] = tested on: giant foxtail (Setaria faberii); test: Test A postemergence; conditions: Setaria faberi, post-emergence, 240 h; for pest or weed control at 125 g/ha: 125 g ai/ha, postemergence; for pest or weed control at 31 g/ha: Postemergence, 31 g ai/ha, visual injury after approx. 10 d, 0 to 100 scale, 0 no effect, 100 complete control
In short: as §2

[14] = tested on: ryegrass, Italian (Italian ryegrass, Lolium multiflorum); test: Test A postemergence; conditions: Lolium multiflorum, post-emergence, 240 h; for pest or weed control at 125 g/ha: 125 g ai/ha, postemergence; for pest or weed control at 31 g/ha: Postemergence, 31 g ai/ha, visual injury after approx. 10 d, 0 to 100 scale, 0 no effect, 100 complete control
In short: as §2

[15] = visual injury rating after approximately 10 d, read-out: Kochia plant response rating (0 to 100 scale, 0 no effect, 100 complete control)
[16] = read-out: Plant response rating, Kochia
[17] = visual injury rating after approximately 10 d, read-out: Pigweed plant response rating (0 to 100 scale, 0 no effect, 100 complete control)
[18] = read-out: Plant response rating, Pigweed
[19] = visual injury rating after approximately 10 d, read-out: Galium plant response rating (0 to 100 scale, 0 no effect, 100 complete control)
[20] = read-out: Plant response rating, Galium
[21] = visual injury rating after approximately 10 d, read-out: Wheat plant response rating (0 to 100 scale, 0 no effect, 100 complete control)
[22] = read-out: Plant response rating, Wheat
[23] = visual injury rating after approximately 10 d, read-out: Blackgrass plant response rating (0 to 100 scale, 0 no effect, 100 complete control)
[24] = read-out: Plant response rating, Blackgrass
[25] = visual injury rating after approximately 10 d, read-out: Barnyardgrass plant response rating (0 to 100 scale, 0 no effect, 100 complete control)
[26] = read-out: Plant response rating, Barnyardgrass
[27] = visual injury rating after approximately 10 d, read-out: Ragweed plant response rating (0 to 100 scale, 0 no effect, 100 complete control)
[28] = read-out: Plant response rating, Ragweed
[29] = visual injury rating after approximately 10 d, read-out: Foxtail, Giant plant response rating (0 to 100 scale, 0 no effect, 100 complete control)
[30] = read-out: Plant response rating, Foxtail, Giant
[31] = visual injury rating after approximately 10 d, read-out: Ryegrass, Italian plant response rating (0 to 100 scale, 0 no effect, 100 complete control)
[32] = read-out: Plant response rating, Ryegrass, Italian

Compound | pest or weed control at 250 g/ha [1] [%] | pest or weed control at 250 g/ha [2] [%] | pest or weed control at 250 g/ha [3] [%] | pest or weed control at 250 g/ha [4] [%] | pest or weed control at 125 g/ha [5, 15] [%] | pest or weed control at 31 g/ha [5, 16] [%] | pest or weed control at 125 g/ha [6, 17] [%] | pest or weed control at 31 g/ha [6, 18] [%] | pest or weed control at 125 g/ha [7, 19] [%] | pest or weed control at 31 g/ha [7, 20] [%] | plant injury at 125 g/ha [8, 21] [%] | plant injury at 31 g/ha [8, 22] [%] | pest or weed control at 125 g/ha [9, 23] [%] | pest or weed control at 31 g/ha [9, 24] [%] | pest or weed control at 125 g/ha [10, 25] [%] | pest or weed control at 31 g/ha [10, 26] [%] | pest or weed control at 125 g/ha [11, 27] [%] | pest or weed control at 31 g/ha [11, 28] [%] | plant injury at 125 g/ha ([12]; 125 g ai/ha, postemergence) [%] | Corn plant response rating (crop injury, 0 = no effect, 100 = complete kill) at 31 g/ha [12] [%] | further results
CN1C[C@H](c2ccc(C(F)(F)F)c(Br)c2)[C@@H](C(=O)Nc2cccc(F)c2F)C1=O [Compound 804] | 30 | 0 | 60 | 80 | 70 | 40 | 60 | 50 | 50 | 40 | 20 | 0 | 20 | 0 | 70 | 20 | 0 | 0 | 50 | 0 | pest or weed control at 125 g/ha [13, 29]: 80%; pest or weed control at 31 g/ha [13, 30]: 60%; pest or weed control at 125 g/ha [14, 31]: 0%; pest or weed control at 31 g/ha [14, 32]: 0%
CN1C[C@H](c2ccc(C#N)cc2)[C@@H](C(=O)Nc2cccc(F)c2F)C1=O (racemic) [Compound 775] | 35 | 65 | 0 | 75 | – | – | – | – | – | – | – | – | – | – | – | – | – | – | – | – | pest or weed control at 125 g/ha ([5]; visual injury after approximately 10 d, 0 to 100 scale (0 no effect, 100 complete control), read-out: Plant response rating, Kochia): 40%; pest or weed control at 125 g/ha ([6]; visual injury after approximately 10 d, 0 to 100 scale (0 no effect, 100 complete control), read-out: Plant response rating, Pigweed): 0%; pest or weed control at 125 g/ha ([7]; visual injury after approximately 10 d, 0 to 100 scale (0 no effect, 100 complete control), read-out: Plant response rating, Galium): 40%; plant injury at 125 g/ha ([8]; visual injury after approximately 10 d, 0 to 100 scale (0 no effect, 100 complete control), read-out: Plant response rating, Wheat): 20%; pest or weed control at 125 g/ha ([9]; visual injury after approximately 10 d, 0 to 100 scale (0 no effect, 100 complete control), read-out: Plant response rating, Blackgrass): 0%; pest or weed control at 125 g/ha ([10]; visual injury after approximately 10 d, 0 to 100 scale (0 no effect, 100 complete control), read-out: Plant response rating, Barnyardgrass): 50%; pest or weed control at 125 g/ha ([11]; visual injury after approximately 10 d, 0 to 100 scale (0 no effect, 100 complete control), read-out: Plant response rating, Ragweed): 20%; Corn plant response rating (crop injury, 0 = no effect, 100 = complete kill) at 125 g/ha ([12]; 125 g ai/ha, postemergence, visual injury after approximately 10 d, 0 to 100 scale (0 no effect, 100 complete control)): 20%; pest or weed control at 125 g/ha ([13]; visual injury after approximately 10 d, 0 to 100 scale (0 no effect, 100 complete control), read-out: Plant response rating, Foxtail, Giant): 60%; pest or weed control at 125 g/ha ([14]; visual injury after approximately 10 d, 0 to 100 scale (0 no effect, 100 complete control), read-out: Plant response rating, Ryegrass, Italian): 20%
CN1CC[C@H](c2ccc3c(c2)OC(F)(F)O3)[C@@H](C(=O)Nc2ccccc2C(F)(F)F)C1=O [Compound 811] | 20 | 40 | 0 | 40 | 0 | 0 | 0 | 0 | 0 | 0 | 0 | 0 | 0 | 0 | 40 | 0 | 0 | 0 | 0 | 0 | pest or weed control at 125 g/ha [13, 29]: 60%; pest or weed control at 31 g/ha [13, 30]: 0%; pest or weed control at 125 g/ha [14, 31]: 0%; pest or weed control at 31 g/ha [14, 32]: 0%
